The results in this text go back to patent US10597380B2, “Pyridazinone-based broad spectrum anti-influenza inhibitors” (Hoffmann-La Roche Inc., priority 2017, dated 2020).

The test system of the experiment is Influenza A/WSN/33-Luciferase virus. Briefly: microbe, parasite or virus in culture. The experiment is classed as cell-based. The settings on record: A549, 72 h, luciferase signal three days later, read-out: IC50 antiviral activity (Luciferase reporter assay). (In general: In a reporter assay the amount or activity of a reporter protein is the signal.)

Regarding `Cn1cccc(Nc2nn(-c3ccc(OC(F)(F)F)cc3)c(=O)c3ccccc23)c1=O` [Example 1, 4-[(1-methyl-2-oxo-3-pyridyl)amino]-2-[4-(trifluoromethoxy)phenyl]phthalazin-1-one], the IC50 was found to be 22 nM.
For the molecule `O=c1[nH]cccc1Nc1nn(-c2ccc(OC(F)(F)F)cc2)c(=O)c2ccccc12` [Example 2, 4-[(2-oxo-1H-pyridin-3-yl)amino]-2-[4-(trifluoromethoxy)phenyl]phthalazin-1-one], the IC50 was 54 nM.
As to `COC(=O)Cn1cccc(Nc2nn(-c3ccc(OC(F)(F)F)cc3)c(=O)c3ccccc23)c1=O` [Example 3, methyl 2-[2-oxo-3-[[4-oxo-3-[4-(trifluoromethoxy)phenyl]phthalazin-1-yl]amino]-1-pyridyl]acetate], the IC50 is 38 nM.
With `COC(=O)C(C)(C)Cn1cccc(Nc2nn(-c3ccc(OC(F)(F)F)cc3)c(=O)c3ccccc23)c1=O` [Example 4, methyl 2,2-dimethyl-3-[2-oxo-3-[[4-oxo-3-[4-(trifluoromethoxy)phenyl]phthalazin-1-yl]amino]-1-pyridyl]propanoate] the figure was 489 nM; with `CCOC(=O)COCCn1cccc(Nc2nn(-c3ccc(OC(F)(F)F)cc3)c(=O)c3ccccc23)c1=O` [Example 5, ethyl 2-[2-[2-oxo-3-[[4-oxo-3-[4-(trifluoromethoxy)phenyl]phthalazin-1-yl]amino]-1-pyridyl]ethoxy]acetate], 485 nM; with `COC(=O)[C@H]1CCCN1CCn1cccc(Nc2nn(-c3ccc(OC(F)(F)F)cc3)c(=O)c3ccccc23)c1=O` [Example 6, methyl (2R)-1-[2-[2-oxo-3-[[4-oxo-3-[4-(trifluoromethoxy)phenyl]phthalazin-1-yl]amino]-1-pyridyl]ethyl]pyrrolidine-2-carboxylate], 52 nM.
Under `Cc1cc(OC(F)(F)F)ccc1-n1nc(Nc2cccn(C)c2=O)c2ccccc2c1=O` [Example 7, 4-[(1-methyl-2-oxo-3-pyridyl)amino]-2-[2-methyl-4-(trifluoromethoxy)phenyl]phthalazin-1-one] stands 4340 nM; under `Cn1cccc(Nc2nn(-c3ccc(C(C)(C)C)nc3)c(=O)c3ccccc23)c1=O` [Example 8, 2-(6-tert-butyl-3-pyridyl)-4-[(1-methyl-2-oxo-3-pyridyl)amino]phthalazin-1-one], 73 nM.
For `Cn1cccc(Nc2nn(-c3cnc(C(C)(C)C)nc3)c(=O)c3ccccc23)c1=O` [Example 9, 2-(2-tert-butylpyrimidin-5-yl)-4-[(1-methyl-2-oxo-3-pyridyl)amino]phthalazin-1-one], the IC50 was 275 nM.
In the case of `Cn1cccc(Nc2nn(-c3ccc(C4(C)COC4)cc3)c(=O)c3ccccc23)c1=O` [Example 10, 2-[4-(3-methyloxetan-3-yl)phenyl]-4-[(1-methyl-2-oxo-3-pyridyl)amino]phthalazin-1-one], the IC50 was determined as 259 nM.
Take `Cn1cccc(Nc2nn(-c3ccc(C4COC4)cc3)c(=O)c3ccccc23)c1=O` [Example 11, 4-[(1-methyl-2-oxo-3-pyridyl)amino]-2-[4-(oxetan-3-yl)phenyl]phthalazin-1-one]: the IC50 amounted to 2010 nM.
With `Cn1cccc(Nc2nn(-c3ccc(C4CC4)cc3)c(=O)c3ccccc23)c1=O` [Example 12, 2-(4-cyclopropylphenyl)-4-[(1-methyl-2-oxo-3-pyridyl)amino]phthalazin-1-one] the figure was 407 nM.
On to `COCCOc1ccc(-n2nc(Nc3cccn(C)c3=O)c3ccccc3c2=O)cc1` [Example 13, 2-[4-(2-methoxyethoxy)phenyl]-4-[(1-methyl-2-oxo-3-pyridyl)amino]phthalazin-1-one], for which the IC50 amounted to 1510 nM.
Take `Cn1cccc(Nc2nn(-c3ccc(C(C)(C)C)cc3)c(=O)c3ccccc23)c1=O` [Example 14, 2-(4-tert-butylphenyl)-4-[(1-methyl-2-oxo-3-pyridyl)amino]phthalazin-1-one]: the IC50 worked out at 109 nM.
Under `CC(C)(C)c1ccc(-n2nc(Nc3ccc[nH]c3=O)c3ccccc3c2=O)cc1` [Example 15, 2-(4-tert-butylphenyl)-4-[(2-oxo-1H-pyridin-3-yl)amino]phthalazin-1-one] stands 132 nM; under `COc1ccc2c(Nc3cccn(C)c3=O)nn(-c3ccc(OC(F)(F)F)cc3)c(=O)c2c1` [Example 16, 7-methoxy-4-[(1-methyl-2-oxo-3-pyridyl)amino]-2-[4-(trifluoromethoxy)phenyl]phthalazin-1-one], 12 nM; under `Cn1cccc(Nc2nn(-c3ccc(OC(F)(F)F)cc3)c(=O)c3c(F)cccc23)c1=O` [Example 17, 8-fluoro-4-[(1-methyl-2-oxo-3-pyridyl)amino]-2-[4-(trifluoromethoxy)phenyl]phthalazin-1-one], 100 nM.
Under `Cn1cccc(Nc2nn(-c3ccc(OC(F)(F)F)cc3)c(=O)c3cccc(F)c23)c1=O` [Example 18, 5-fluoro-4-[(1-methyl-2-oxo-3-pyridyl)amino]-2-[4-(trifluoromethoxy)phenyl]phthalazin-1-one] stands 122 nM; under `COc1cccc2c(=O)n(-c3ccc(OC(F)(F)F)cc3)nc(Nc3cccn(C)c3=O)c12` [Example 19, 5-methoxy-4-[(1-methyl-2-oxo-3-pyridyl)amino]-2-[4-(trifluoromethoxy)phenyl]phthalazin-1-one], 59500 nM; under `CCc1ccc2c(Nc3cccn(C)c3=O)nn(-c3ccc(C(C)(C)C)cc3)c(=O)c2c1` [Example 20, 2-(4-tert-butylphenyl)-7-ethyl-4-[(1-methyl-2-oxo-3-pyridyl)amino]phthalazin-1-one], 4 nM.
With `Cn1cccc(Nc2nn(-c3ccc(OC(F)(F)F)cc3)c(=O)c3c2CCCC3)c1=O` [Example 21, 4-[(1-methyl-2-oxo-3-pyridyl)amino]-2-[4-(trifluoromethoxy)phenyl]-5,6,7,8-tetrahydrophthalazin-1-one] the figure was 5 nM; with `Cn1cncc(Nc2nn(-c3ccc(OC(F)(F)F)cc3)c(=O)c3c2CCCC3)c1=O` [Example 22, 4-[(1-methyl-6-oxo-pyrimidin-5-yl)amino]-2-[4-(trifluoromethoxy)phenyl]-5,6,7,8-tetrahydrophthalazin-1-one], 16 nM; with `COC(=O)c1cc(Nc2nn(-c3ccc(OC(F)(F)F)cc3)c(=O)c3c2CCCC3)c(=O)n(C)c1` [Example 23, methyl 1-methyl-6-oxo-5-[[4-oxo-3-[4-(trifluoromethoxy)phenyl]-5,6,7,8-tetrahydrophthalazin-1-yl]amino]pyridine-3-carboxylate], 712 nM.
On to `COC(=O)Cn1cccc(Nc2nn(-c3ccc(OC(F)(F)F)cc3)c(=O)c3c2CCCC3)c1=O` [Example 24, methyl 2-[2-oxo-3-[[4-oxo-3-[4-(trifluoromethoxy)phenyl]-5,6,7,8-tetrahydrophthalazin-1-yl]amino]-1-pyridyl]acetate], for which the IC50 amounted to 22 nM.
Consider `CN(C)CCn1cncc(Nc2nn(-c3ccc(OC(F)(F)F)cc3)c(=O)c3c2CCCC3)c1=O` [Example 25, 4-[[1-[2-(dimethylamino)ethyl]-6-oxo-pyrimidin-5-yl]amino]-2-[4-(trifluoromethoxy)phenyl]-5,6,7,8-tetrahydrophthalazin-1-one], for which the IC50 turned out to be 14 nM.
With `Cn1cccc(Nc2nn(-c3ccc(C(C)(C)C)nc3)c(=O)c3c2CCCC3)c1=O` [Example 26, 2-(6-tert-butyl-3-pyridyl)-4-[(1-methyl-2-oxo-3-pyridyl)amino]-5,6,7,8-tetrahydrophthalazin-1-one] the figure was 25 nM.

The term IC50 denotes the concentration at which inhibition is half-maximal.
